Laboratory results taken from US20240270713A1, “NOVEL COMPOUND EXHIBITING THERAPEUTIC EFFECT ON INFLAMMATORY DISEASE AS P38 MAP KINASE INHIBITOR” (PRAZERTHERAPEUTICS INC., priority 2021, published 2024).

Columns and labels:
TNFα mRNA [1] = experiment: Cytokine mRNA expression inhibitory ability, TNFα, LPS-treated Raw264.7 cells; format: cell-based; details: 1 μM compound 24 hours, then 100 ng/ml LPS 24 hours
Description: (§1) Evaluation of cytokine mRNA expression inhibitory ability according to inflammatory response
(§2) In order to identify inhibition of p-p38 MAPK, inhibition of p38 MAPK was identified after treating each compound to Raw264.7 cells obtained by converting macrophages that induces inflammation according to p-p38 MAPK activity cancerous cells. Briefly, Raw264.7 cells were cultured in Dulbecco's modified Eagle Medium supplemented with 10% fetal bovine serum and penicillin/streptomycin (100 U/ml). Raw264.7 cells were treated with 1 μM of Compounds 1 to 5 according to the present disclosure in a culture dish respectively and cultured for 24 hours in a CO2 incubator, and then treated with 100 ng/ml of LPS, followed by additional culture for 24 hours in a CO2 incubator.
(§3) After cell culture was terminated according to the experimental conditions, cells were washed with cold phosphate buffered saline (PBS). The cells were then collected and centrifuged at 1200 rpm for 3 minutes. RNA was extracted according to the method provided in the Hybrid-R total RNA purification kit (GeneAll, 305-101). After measuring the concentration and purity of RNA using Nanodrop, cDNA was synthesized according to the method provided in TOPscript RT DryMIX (Enzynomics, RT200). After a reaction at 95° C. for 3 minutes using SYBR Green Mix along with primer, cDNA was subjected to repetitive reactions 30 times at 95° C. for 10 seconds, at 55° C. for 10 seconds, and at 72° C. for 30 seconds to determine the RNA expression level. The results are shown in Tables 5 and 6 below and FIGS. 1 and 2.

IL-1β mRNA [2] = experiment: Cytokine mRNA expression inhibitory ability, IL-1β, LPS-treated Raw264.7 cells; format: cell-based; details: 1 μM compound 24 hours, then 100 ng/ml LPS 24 hours
Description: as §1, §2, §3

p38 alpha = p38 alpha (Homo sapiens (Human), UniProt Q16539); experiment: p38α MAPK inhibitory ability (peptide/kinase mixture, development reagent, 445/520 nm); format: biochemical; details: 1 hour at room temperature
Description: Evaluation of p38a mitogen-activated protein kinase (MAPK) inhibitory ability
To determine the ability to inhibit p38 MAPK, Compounds 1 to 5 were diluted to determine the inhibitory effect depending on a concentration. Briefly, the compounds were diluted at concentrations of 1000, 333, 111, 37.0, 12.3, 4.12, 1.37, 0.457, 0.152, and 0.0495 nM, respectively, and then a peptide/kinase mixture (final 7.07-28.3 ng p38 alpha, 2 μM serine/threonine 15, 50 mM HEPES pH 7.0, 0.01% NaN3) and ATP solution were added respectively. After reacting at room temperature for 1 hour, a development reagent was added, followed by a reaction again at room temperature for 1 hour.

p-p38 MAPK = p-p38 MAPK (Mus musculus (Mouse), UniProt P47811); experiment: p38 MAPK protein inhibitory ability in cells (p-p38 immunoblot, LPS-treated Raw264.7); format: cell-based; details: Raw264.7 cells, 1 μM compound 24 hours, then 100 ng/ml LPS 6 hours
Description: Evaluation of p38 MAPK protein inhibitory ability in cells
as §2, with “Raw264.7 cells which are obtained by” for “Raw264.7 cells obtained by”, “MAPK activity into cancerous cells.” for “MAPK activity cancerous cells.”, “culture for 6 hours in” for “culture for 24 hours in”
After cell culture was terminated according to the experimental conditions, cells were washed with cold phosphate buffered saline (PBS). The cells were then collected and centrifuged at 1200 rpm for 3 minutes. The pellet was lysed with 2X sample buffer (1M Tris-HCl pH 6.8, 50% glycerol, 10% SDS, 2-mercaptoethanol, 1% bromophenol blue) and boiled at 100° C. for 10 minutes. The prepared protein samples were subjected to sodium dodecyl sulfate poly acrylamide gel electrophoresis and transferred to PVDF membrane (Millipore). For a specific binding reaction between the protein in the PVDF membrane and antibody, blocking was performed in a 5% bovine serum albumin (BSA, RMbio) solution. Subsequently, the BSA solution was discarded, and the membrane was washed with PBS-T (0.5% Tween 20 in PBS). The binding reaction of the protein in the membrane and antibody was performed overnight at 4° C. and washed again with PBS-T. Finally, a secondary antibody (Cell signaling Technology) conjugated with horse radish peroxidase (HRP) was diluted in PBS-T and reacted at room temperature for 2 hours. Luminata Forte HRP substrate (Millipore) was used to determine the amount of protein in the membrane, the results of which are shown in Table 4 below.

TNFα mRNA [3] = experiment: Cytokine mRNA expression inhibitory ability, TNFα, LPS-treated BV2 cells; format: cell-based; details: 1 μM compound 24 hours, then 1000 ng/ml LPS 24 hours
Description: (§4) Evaluation of cytokine mRNA expression inhibitory ability by inflammatory response
(§5) In order to identify inhibition of p-p38 MAPK, the inhibition of p38 MAPK was identified by treating each compound to BV2 cells obtained by converting microglia that induces inflammation according to p-p38 MAPK activity in the brain into cancerous cells. Briefly, BV2 cells were cultured in Dulbecco's modified Eagle Medium supplemented with 10% fetal bovine serum and penicillin/streptomycin (100 U/ml). BV2 cells were treated with 1 μM of Compounds 4 to 6 according to the present disclosure in a culture dish respectively and cultured for 24 hours in a CO2 incubator, and then treated with 1000 ng/ml of LPS, followed by additional culture for 24 hours in a CO2 incubator.
(§6) After the cell culture was completed according to the experimental conditions, washing was performed with cold phosphate buffered saline (PBS). The cells were then collected and centrifuged at 1200 rpm for 3 minutes. RNA was extracted according to the method provided in the Hybrid-R total RNA purification kit (GeneAllR), 305-101). After measuring the concentration and purity of RNA using Nanodrop, cDNA was synthesized according to the method provided in TOPscript RT DryMIX (Enzynomics, RT200). […]

IL-1β mRNA [4] = experiment: Cytokine mRNA expression inhibitory ability, IL-1β, LPS-treated BV2 cells; format: cell-based; details: 1 μM compound 24 hours, then 1000 ng/ml LPS 24 hours
Description: as §4, §5, §6

Sequence of p-p38 MAPK (P47811 whole entry): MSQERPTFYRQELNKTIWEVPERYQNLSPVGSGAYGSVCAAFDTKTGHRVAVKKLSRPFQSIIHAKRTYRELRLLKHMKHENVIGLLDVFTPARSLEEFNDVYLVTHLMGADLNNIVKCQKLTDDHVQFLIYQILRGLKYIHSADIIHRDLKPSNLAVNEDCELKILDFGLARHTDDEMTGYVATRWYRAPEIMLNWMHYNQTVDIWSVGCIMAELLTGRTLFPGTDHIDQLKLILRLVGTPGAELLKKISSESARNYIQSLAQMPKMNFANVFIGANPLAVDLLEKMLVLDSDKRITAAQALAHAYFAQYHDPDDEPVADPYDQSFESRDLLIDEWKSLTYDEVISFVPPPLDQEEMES
Sequence of p38 alpha (Q16539 whole entry): as the sequence (P47811 whole entry) above, with H48L, A263T counted along it

## Cc1c(F)cc(C(=O)NC2CC2)cc1-c1ccc(C(=O)c2c[nH]c3ccccc23)cn1 [Compound 4, 3-(5-(1H-indole-3-carbonyl)pyridin-2-yl)-N-cyclopropyl-5-fluoro-4-methylbenzamide]
TNFα mRNA [1]
  TNFα mRNA inhibition: 51.5%
IL-1β mRNA [2]
  IL-1β mRNA inhibition: 38.2%
p38 alpha
  IC50: 18.8 nM
p-p38 MAPK
  inhibition at 1 µM: 68%
TNFα mRNA [3]
  TNFα mRNA inhibition: 24.5%
IL-1β mRNA [4]
  IL-1β mRNA inhibition: 68.5%
